# ChEMBL document CHEMBL1130448, “CETP inhibitory activity of ceramides, isolated from the gorgonian Acabaria Undulata” (Bioorg Med Chem Lett, 1997)
# Target: T1, Cholesteryl ester transfer protein (Homo sapiens, UniProt P11597)
# T1 sequence (P11597 whole entry): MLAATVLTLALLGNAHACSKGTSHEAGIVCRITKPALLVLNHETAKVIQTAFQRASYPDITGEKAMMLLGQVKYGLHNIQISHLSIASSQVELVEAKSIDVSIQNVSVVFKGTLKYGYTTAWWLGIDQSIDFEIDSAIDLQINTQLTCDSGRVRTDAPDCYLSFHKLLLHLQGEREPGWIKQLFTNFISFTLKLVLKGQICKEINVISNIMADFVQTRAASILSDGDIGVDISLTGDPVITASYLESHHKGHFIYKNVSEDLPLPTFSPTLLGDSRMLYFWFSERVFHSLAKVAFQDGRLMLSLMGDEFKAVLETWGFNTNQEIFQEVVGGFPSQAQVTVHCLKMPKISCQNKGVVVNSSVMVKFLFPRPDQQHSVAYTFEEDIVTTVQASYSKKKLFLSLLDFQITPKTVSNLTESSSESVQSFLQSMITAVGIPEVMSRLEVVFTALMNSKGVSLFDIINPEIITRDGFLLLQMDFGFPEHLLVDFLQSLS
# Assay: Compound was measured for its inhibitory activity against cholesteryl ester transfer protein (CETP)
row,SMILES,IC50
1,CC(C)CNC(=O)/C=C/[C@@H]1C[C@H]1[C@@H]1C[C@H]1[C@@H]1C[C@H]1[C@@H]1C[C@H]1[C@@H]1C[C@H]1/C=C/[C@@H]1C[C@H]1C,25 µM
2,CCCCCCCCCCCCCCCC(=O)N[C@@H](CO)[C@H](O)/C=C/CC/C=C/CCCCCCCC(C)C,86.3 µM
3,CCCCCCCCCCCCC/C=C/[C@@H](O)[C@H](CO)NC(=O)CCCCCCCCCCCCCCC,65.6 µM
4,CCCCCCCCC/C=C/CC/C=C/[C@@H](O)[C@H](CO)NC(=O)CCCCCCCCCCCCCCC,46.8 µM
5,CCCCCCC/C=C/C=C/CC/C=C/[C@@H](O)[C@H](CO)NC(=O)CCCCCCCCCCCCCCC,57.3 µM
6,CCCCCCCCCCCCC/C=C/[C@@H](O)[C@@H](N)COP(=O)([O-])OCC[N+](C)(C)C [SPHINGOSYLPHOSPHORYLCHLOLINE],157 µM

# Molecules with a lower IC50, results first:
row,IC50,SMILES
1,19.7 µM,CCCCCCCCCCCCC/C=C/C(O)C(N)CO[C@H]1O[C@H](CO)[C@H](O)[C@H](O)[C@H]1O (stereo not given in full)
2,6.3 µM,CCCCCCCCCCCCC/C=C/C(O)C(CO)N(C)C (stereo not given)
3,12.9 µM,CCCCCCCCCCCCCCC[C@@H](O)[C@@H](N)CO (racemic) [DIHYDROSPINGOSINE]
4,11.5 µM,CCCCCCCCCCCCC/C=C/[C@@H](O)[C@@H](N)CO [SPHINGOSINE]
